Source: patent publication US12643867B2, “Compositions and uses thereof” (University of Virginia Patent Foundation, priority 2017, dated 2026)

What was measured:
[1] = target: T1, FER (Proto-oncogene tyrosine-protein kinase FER) (Homo sapiens, UniProt P16591); assay: SILAC LC-MS ATP acyl phosphate probe competition, native kinases in HEK293T; type: binding; details: site Lys1 (K591); ATP 1 mM; Ketanserin, Ritanserin 100 μM; RF001 1 mM
T1 construct: measured against >50 native kinases quantified in HEK293T soluble proteomes; endogenous in cells; host or cells: HEK293T soluble proteome
Protocol: (§1) Proteomes were diluted to 2 mg/ml in kinase buffer. The light and heavy proteomes (0.5 mg, 250 μL total reaction volume) were pre-treated with vehicle or compound, respectively (5 μL, DMSO (light) or 50× stock in DMSO (heavy)), mixed gently, and incubated at 25° C. for 30 min. […] After incubation, matched light and heavy proteomes were transferred and mixed in a 1:1 ratio in a two-dram vial containing 4:1:3 MeOH/CHCl3/H2O (2 mL MeOH, 500 AL CHCl3, 1.5 mL H2O) for extraction of proteins to remove excess probe, quickly vortexed, and centrifuged at 1,400×g for 3 min to pellet protein. Organic and aqueous layers were removed using a Pasteur pipette, and the protein pellet was transferred to a screw-top tube in 600 μL MeOH. A second extraction was performed by adding CHCl3 (150 μL) and H2O (600 μL) to each sample, vortexed, and centrifuged at 1,400×g for 3 min to pellet protein. Organic and aqueous layers were removed by pipetting. MeOH added to pellet (600 μL) and pellets were re-suspended by sonication (3×1 sec pulse, 20% amplitude) for a final extraction. Samples were then centrifuged at 17,000×g for 5 min to pellet protein and MeOH was removed by pipetting. The pellets were re-suspended in 10 M urea/25 mM ammonium bicarbonate ([…]), brought to a final volume of 1 mL with 25 mM ammonium bicarbonate, reduced with 10 mM DTT for 15 min at 65° C. allowed to cool, and then alkylated with 40 mM iodoacetamide for 30 min at 25° C. in the dark. To desalt the samples, each was transferred to a two-dram glass vial, and to the vial 4:1:2 MeOH/CHCl3/H2O (2 mL MeOH, 500 AL CHCl3, 1 mL H2O) was added. The vials were vortexed quickly, spun at 1.400×g for 3 min to pellet protein, and aqueous and organic layers were removed using a Pasteur pipette. The resulting protein pellet was transferred to a screw-top tube in 600 μL MeOH, and then CHCl3 (150 μL) and HO (600 μL) were added to extract protein a second time. The samples were vortexed quickly, centrifuged at 1,400×g to pellet protein, and the aqueous and organic layers were removed by pipetting. Resulting protein pellet was suspended in MeOH (600 μL) via sonication (3×1 sec pulse, 20% amplitude), centrifuged at 17,000×g for 5 min to pellet protein, and MeOH removed by pipetting. Protein pellets were then re-suspended in 25 mM ammonium bicarbonate (500 μL) and digested with 7.5 μg Trypsin/Lys-C(Promega, 15 μL, 0.5 μg/μL) for 3 h at 37° C. Avidin-agarose beads (Thermo Scientific Pierce, 100 AL aliquot per sample) were washed three times by adding 10 mL DPBS, centrifuged at 1,400×g for 1 min, and decanting. This wash step was repeated for a total of 3 times. Digested protein samples were mixed with washed avidin beads (100 μL) and brought to a volume of 5.5 mL with DPBS in a 15 mL conical and rotated for 1 h to enrich samples for the covalent desthiobiotin modification. The beads were washed with 25 mM ammonium bicarbonate (3× with 10 mL, centrifuge at 1,400×g for 3 min, decant) and then H2O (3× with 10 mL, centrifuge at 1,400×g for 3 min, decant). Washed beads were then transferred to a low-bind microfuge tube, centrifuged at 1,400×g for 3 min, allowed to rest for 1 min to settle beads, and then excess H2O was removed carefully using a gel-loading pipette tip. To elute peptides, 100 μL of elution buffer (50% acetonitrile, ACN; 0.1% formic acid) was added to each sample and incubated for 3 min. Beads were spun down at 1.400×g for 3 min, allowed to rest for 1 min to settle beads, and then 75 μL of peptide-containing supernatant was removed carefully using a gel-loading pipette tip and transferred to a new low bind centrifuge tube. This step was repeated two more times with 75 μL of elution buffer and all eluent were collected into the same centrifuge tube (˜225 μL total). Peptides were dried on a speed vacuum, resulting peptide samples acidified in 5% (v/v) formic acid, and stored at −80° C. until analysis.
(§2) The peptide samples were analyzed by liquid chromatography-mass spectrometry. […]

[2] = target: T2, E2AK2 (Interferon-induced, double-stranded RNA-activated protein kinase) (Homo sapiens, UniProt P19525); assay: as above; type: binding; details: site Lys2; ATP 1 mM; Ketanserin, Ritanserin 100 μM; RF001 1 mM
T2 construct: measured against >50 native kinases quantified in HEK293T soluble proteomes; endogenous in cells; host or cells: HEK293T soluble proteome
Protocol: as §1, §2

[3] = target: T3, KCC2D (Calcium/calmodulin-dependent protein kinase type II delta chain) (Homo sapiens, UniProt Q13557); assay: as above; type: binding; details: site Lys1; ATP 1 mM; Ketanserin, Ritanserin 100 μM; RF001 1 mM
T3 construct: measured against >50 native kinases quantified in HEK293T soluble proteomes; endogenous in cells; host or cells: HEK293T soluble proteome
Protocol: as §1, §2

[4] = target: Zeta (DGK zeta) (Homo sapiens, UniProt Q13574); assay: DGK isoform % Activity screen; type: biochemical
[5] = system: AAPK1/AAPK2 (5′-AMP-activated protein kinase catalytic subunit alpha-1); assay: SILAC LC-MS ATP acyl phosphate probe competition, native kinases in HEK293T; type: binding, Homo sapiens (Human); details: site Lys2; ATP 1 mM; Ketanserin, Ritanserin 100 μM; RF001 1 mM
Protocol: as §1, §2

[6] = system: KS6A1/KS6A2/KS6A3 (Ribosomal protein S6 kinase alpha 1); assay: as above; type: binding, Homo sapiens (Human); details: site Lys2; ATP 1 mM; Ketanserin, Ritanserin 100 μM; RF001 1 mM
Protocol: as §1, §2

[7] = system: KS6A4/KS6A5 (Ribosomal protein S6 kinase alpha 4); assay: as above; type: binding, Homo sapiens (Human); details: site ATP Loop; ATP 1 mM; Ketanserin, Ritanserin 100 μM; RF001 1 mM
Protocol: as §1, §2

[8] = system: MP2K1/MP2K2 (Dual specificity mitogen-activated protein kinase kinase 1); assay: as above; type: binding, Homo sapiens (Human); details: site Lys2; ATP 1 mM; Ketanserin, Ritanserin 100 μM; RF001 1 mM
Protocol: as §1, §2

[9] = system: STK3/STK4 (Serine/threonine-protein kinase 3); assay: as above; type: binding, Homo sapiens (Human); details: site Lys2; ATP 1 mM; Ketanserin, Ritanserin 100 μM; RF001 1 mM
Protocol: as §1, §2

[10] = system: MARK3/MARK4 (MAP/microtubule affinity-regulating kinase 3); assay: as above; type: binding, Homo sapiens (Human); details: site Lys1; ATP 1 mM; Ketanserin, Ritanserin 100 μM; RF001 1 mM
Protocol: as §1, §2

[11] = system: M4K4/MINK1/TNIK (Mitogen-activated protein kinase kinase kinase kinase 4); assay: as above; type: binding, Homo sapiens (Human); details: site Lys2; ATP 1 mM; Ketanserin, Ritanserin 100 μM; RF001 1 mM
Protocol: as §1, §2

[12] = target: Gamma (DGK gamma) (Homo sapiens, UniProt P49619); assay: DGK isoform % Activity screen; type: biochemical
[13] = system: recombinant DGKs and native kinases in HEK293T proteomes; assay: Quantitative chemical proteomics, summary over kinases; type: binding; details: for number of kinase targets that show SR≥2: recombinant DGKs and native kinases
Protocol: as §1, §2

[14] = system: M3K2/M3K3 (Mitogen-activated protein kinase kinase kinase 2); assay: SILAC LC-MS ATP acyl phosphate probe competition, native kinases in HEK293T; type: binding, Homo sapiens; details: site Lys2; ATP 1 mM; Ketanserin, Ritanserin 100 μM; RF001 1 mM
Protocol: Proteomes were diluted to 2 mg/ml in kinase buffer. The light and heavy proteomes (0.5 mg, 250 μL total reaction volume) were pre-treated with vehicle or compound, respectively (5 μL, DMSO (light) or 50× stock in DMSO (heavy)), mixed gently, and incubated at 25° C. for 30 min. […] After incubation, matched light and heavy proteomes were transferred and mixed in a 1:1 ratio in a two-dram vial containing 4:1:3 MeOH/CHCl3/H2O (2 mL MeOH, 500 AL CHCl3, 1.5 mL H2O) for extraction of proteins to remove excess probe, quickly vortexed, and centrifuged at 1,400×g for 3 min to pellet protein. Organic and aqueous layers were removed using a Pasteur pipette, and the protein pellet was transferred to a screw-top tube in 600 μL MeOH. A second extraction was performed by adding CHCl3 (150 μL) and H2O (600 μL) to each sample, vortexed, and centrifuged at 1,400×g for 3 min to pellet protein. Organic and aqueous layers were removed by pipetting. MeOH added to pellet (600 μL) and pellets were re-suspended by sonication (3×1 sec pulse, 20% amplitude) for a final extraction. Samples were then centrifuged at 17,000×g for 5 min to pellet protein and MeOH was removed by pipetting. The pellets were re-suspended in 10 M urea/25 mM ammonium bicarbonate ([…]), brought to a final volume of 1 mL with 25 mM ammonium bicarbonate, reduced with 10 mM DTT for 15 min at 65° C. allowed to cool, and then alkylated with 40 mM iodoacetamide for 30 min at 25° C. in the dark. To desalt the samples, each was transferred to a two-dram glass vial, and to the vial 4:1:2 MeOH/CHCl3/H2O (2 mL MeOH, 500 AL CHCl3, 1 mL H2O) was added. The vials were vortexed quickly, spun at 1.400×g for 3 min to pellet protein, and aqueous and organic layers were removed using a Pasteur pipette. The resulting protein pellet was transferred to a screw-top tube in 600 μL MeOH, and then CHCl3 (150 μL) and HO (600 μL) were added to extract protein a second time. […]
as §2

Sequence of Zeta (DGK zeta) (Q13574 whole entry, canonical isoform): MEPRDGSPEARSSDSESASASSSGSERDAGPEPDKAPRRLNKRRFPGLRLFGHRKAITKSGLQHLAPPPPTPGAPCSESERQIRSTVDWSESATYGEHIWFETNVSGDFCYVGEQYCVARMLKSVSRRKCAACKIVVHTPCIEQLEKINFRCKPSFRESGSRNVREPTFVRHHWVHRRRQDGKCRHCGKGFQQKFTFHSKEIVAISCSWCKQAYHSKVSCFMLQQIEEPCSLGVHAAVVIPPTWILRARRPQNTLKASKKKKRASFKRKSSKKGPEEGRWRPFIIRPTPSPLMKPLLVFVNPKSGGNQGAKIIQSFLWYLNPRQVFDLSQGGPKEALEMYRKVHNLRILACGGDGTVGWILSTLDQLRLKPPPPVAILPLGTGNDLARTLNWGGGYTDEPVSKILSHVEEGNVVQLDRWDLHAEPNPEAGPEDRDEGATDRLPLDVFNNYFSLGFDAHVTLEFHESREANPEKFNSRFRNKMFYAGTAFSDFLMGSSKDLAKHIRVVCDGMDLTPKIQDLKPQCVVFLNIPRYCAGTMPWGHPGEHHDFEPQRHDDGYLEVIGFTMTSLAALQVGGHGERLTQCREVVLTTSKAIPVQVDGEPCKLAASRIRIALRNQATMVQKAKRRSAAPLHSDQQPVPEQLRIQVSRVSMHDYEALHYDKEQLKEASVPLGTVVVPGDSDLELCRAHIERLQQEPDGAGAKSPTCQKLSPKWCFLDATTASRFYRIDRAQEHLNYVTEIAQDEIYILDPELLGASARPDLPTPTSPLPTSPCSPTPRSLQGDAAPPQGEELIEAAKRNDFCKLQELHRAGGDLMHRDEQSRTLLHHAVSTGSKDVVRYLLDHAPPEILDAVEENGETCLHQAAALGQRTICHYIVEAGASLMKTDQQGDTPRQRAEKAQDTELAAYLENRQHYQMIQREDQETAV
Sequence of Gamma (DGK gamma) (P49619 whole entry, canonical isoform): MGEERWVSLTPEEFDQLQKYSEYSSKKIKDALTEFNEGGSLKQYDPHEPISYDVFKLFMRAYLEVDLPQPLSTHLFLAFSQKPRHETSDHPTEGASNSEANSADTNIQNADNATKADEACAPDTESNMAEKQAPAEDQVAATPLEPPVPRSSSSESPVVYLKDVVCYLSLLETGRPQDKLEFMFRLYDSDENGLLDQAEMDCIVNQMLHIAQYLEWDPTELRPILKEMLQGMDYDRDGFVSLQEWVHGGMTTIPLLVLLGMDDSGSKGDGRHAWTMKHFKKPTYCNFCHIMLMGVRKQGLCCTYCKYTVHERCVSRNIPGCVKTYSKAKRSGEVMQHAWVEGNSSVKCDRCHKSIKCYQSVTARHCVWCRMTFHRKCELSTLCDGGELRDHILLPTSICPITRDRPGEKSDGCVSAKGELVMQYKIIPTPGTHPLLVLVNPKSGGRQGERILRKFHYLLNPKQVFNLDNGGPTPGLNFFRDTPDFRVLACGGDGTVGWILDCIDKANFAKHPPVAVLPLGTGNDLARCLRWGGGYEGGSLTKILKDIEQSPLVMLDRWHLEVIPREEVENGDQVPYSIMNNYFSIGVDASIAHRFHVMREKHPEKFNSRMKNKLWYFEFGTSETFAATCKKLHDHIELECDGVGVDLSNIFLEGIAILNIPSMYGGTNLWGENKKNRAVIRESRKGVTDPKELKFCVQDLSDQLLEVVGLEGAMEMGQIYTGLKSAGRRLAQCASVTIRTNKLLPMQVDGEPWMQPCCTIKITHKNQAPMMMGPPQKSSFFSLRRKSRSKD
T1 sequence (P16591 whole entry): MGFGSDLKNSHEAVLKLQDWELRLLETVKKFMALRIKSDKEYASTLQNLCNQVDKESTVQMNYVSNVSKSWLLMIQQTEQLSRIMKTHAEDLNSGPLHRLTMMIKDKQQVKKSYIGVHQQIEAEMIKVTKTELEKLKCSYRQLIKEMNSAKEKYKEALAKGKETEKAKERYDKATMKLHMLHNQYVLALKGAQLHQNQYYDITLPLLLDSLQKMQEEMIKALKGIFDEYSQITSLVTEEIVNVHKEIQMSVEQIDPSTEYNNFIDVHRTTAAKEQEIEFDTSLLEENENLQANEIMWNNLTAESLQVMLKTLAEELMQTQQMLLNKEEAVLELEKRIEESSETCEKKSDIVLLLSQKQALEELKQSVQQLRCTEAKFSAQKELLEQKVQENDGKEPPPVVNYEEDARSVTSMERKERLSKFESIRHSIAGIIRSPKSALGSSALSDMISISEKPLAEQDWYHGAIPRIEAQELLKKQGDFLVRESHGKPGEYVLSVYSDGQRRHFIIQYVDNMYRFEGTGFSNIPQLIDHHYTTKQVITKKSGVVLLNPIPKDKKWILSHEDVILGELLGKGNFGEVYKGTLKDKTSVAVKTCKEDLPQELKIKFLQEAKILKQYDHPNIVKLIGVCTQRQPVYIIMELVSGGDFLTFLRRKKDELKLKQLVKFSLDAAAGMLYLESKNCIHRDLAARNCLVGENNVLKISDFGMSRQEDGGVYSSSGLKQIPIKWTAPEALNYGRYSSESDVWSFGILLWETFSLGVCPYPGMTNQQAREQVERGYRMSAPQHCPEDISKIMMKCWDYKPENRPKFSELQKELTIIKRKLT
T2 sequence (P19525 whole entry): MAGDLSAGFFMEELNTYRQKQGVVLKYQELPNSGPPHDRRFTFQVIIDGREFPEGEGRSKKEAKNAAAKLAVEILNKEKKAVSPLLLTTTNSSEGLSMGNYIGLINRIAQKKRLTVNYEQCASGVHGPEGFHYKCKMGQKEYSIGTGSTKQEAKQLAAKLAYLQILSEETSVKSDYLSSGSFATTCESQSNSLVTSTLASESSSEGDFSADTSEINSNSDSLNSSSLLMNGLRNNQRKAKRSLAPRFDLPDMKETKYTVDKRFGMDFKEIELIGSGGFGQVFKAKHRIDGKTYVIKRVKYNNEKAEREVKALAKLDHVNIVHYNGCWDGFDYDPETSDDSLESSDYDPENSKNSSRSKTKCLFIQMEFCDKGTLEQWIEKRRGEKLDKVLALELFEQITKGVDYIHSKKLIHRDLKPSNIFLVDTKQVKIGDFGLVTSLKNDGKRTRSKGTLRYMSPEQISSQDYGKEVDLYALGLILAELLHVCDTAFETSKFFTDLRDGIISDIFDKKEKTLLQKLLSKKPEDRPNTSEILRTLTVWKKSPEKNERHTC
T3 sequence (Q13557 whole entry): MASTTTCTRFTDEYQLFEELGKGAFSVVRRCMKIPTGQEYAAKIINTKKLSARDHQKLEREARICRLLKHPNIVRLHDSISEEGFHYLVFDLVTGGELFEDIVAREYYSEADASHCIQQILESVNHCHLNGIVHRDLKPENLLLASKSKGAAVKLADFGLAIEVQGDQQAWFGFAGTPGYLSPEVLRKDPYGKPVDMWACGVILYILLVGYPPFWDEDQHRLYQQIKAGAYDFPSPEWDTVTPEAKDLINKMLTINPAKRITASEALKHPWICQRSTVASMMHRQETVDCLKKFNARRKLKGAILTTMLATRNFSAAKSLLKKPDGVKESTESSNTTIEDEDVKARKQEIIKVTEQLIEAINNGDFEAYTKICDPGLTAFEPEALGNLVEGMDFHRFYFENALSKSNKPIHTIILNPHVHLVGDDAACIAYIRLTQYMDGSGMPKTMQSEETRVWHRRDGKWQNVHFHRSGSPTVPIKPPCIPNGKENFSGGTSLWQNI

Q: What does the source list for `O=C(c1ccc(F)cc1)C1CCN(CCn2c(=O)[nH]c3ccccc3c2=O)CC1` [Ketanserin]?
A: SILAC ratio, FER probe-modified peptide [1]: 1.4; SILAC ratio, E2AK2 probe-modified peptide [2]: 1.3; SILAC ratio, KCC2D probe-modified peptide [3]: 1.5; activity at 100 µM [4]: 90%; SILAC ratio, AAPK1/AAPK2 probe-modified peptide [5]: 1.4; SILAC ratio, KS6A1/KS6A2/KS6A3 probe-modified peptide [6]: 1.4; SILAC ratio, KS6A4/KS6A5 probe-modified peptide [7]: 1.3; SILAC ratio, MP2K1/MP2K2 probe-modified peptide [8]: 1.3; SILAC ratio, STK3/STK4 probe-modified peptide [9]: 1.2; SILAC ratio, MARK3/MARK4 probe-modified peptide [10]: 1.4; SILAC ratio, M4K4/MINK1/TNIK probe-modified peptide [11]: 1.3; activity at 100 µM [12]: 24%; competition at probe-binding sites ([13]; 100 μM): negligible competition at all probe-binding sites; SILAC ratio, M3K2/M3K3 probe-modified peptide [14]: 1.1

Q: With `Fc1ccc(C(=C2CCNCC2)c2ccc(F)cc2)cc1` [RF001, 4-(Bis(4-fluorophenyl)methylene) piperidine] as the compound, how does the “SILAC ratio, FER probe-modified peptide” value [1] read?
A: 1.2

Q: What about the “SILAC ratio, E2AK2 probe-modified peptide” value [2] of the same compound?
A: 1.2

Q: What about the “SILAC ratio, KCC2D probe-modified peptide” value [3] of the same compound?
A: 1.2

Q: What about the activity at 100 µM [4] of the same compound?
A: 80%

Q: And the activity at 1000 µM ([4]; read-out: 1 mM % Activity, Zeta)?
A: 0%

Q: What about the “SILAC ratio, AAPK1/AAPK2 probe-modified peptide” value [5] of the same compound?
A: 1.1

Q: What about the “SILAC ratio, KS6A1/KS6A2/KS6A3 probe-modified peptide” value [6] of the same compound?
A: 1.2

Q: What about the “SILAC ratio, KS6A4/KS6A5 probe-modified peptide” value [7] of the same compound?
A: 1.1

Q: What about the “SILAC ratio, MP2K1/MP2K2 probe-modified peptide” value [8] of the same compound?
A: 0.9

Q: What about the “SILAC ratio, STK3/STK4 probe-modified peptide” value [9] of the same compound?
A: 0.9

Q: What about the “SILAC ratio, MARK3/MARK4 probe-modified peptide” value [10] of the same compound?
A: 1.1

Q: What about the “SILAC ratio, M4K4/MINK1/TNIK probe-modified peptide” value [11] of the same compound?
A: 1.1

Q: And the activity at 100 µM [12]?
A: 82%

Q: And the activity at 1000 µM ([12]; read-out: 1 mM % Activity, Gamma)?
A: 5%

Q: And the “average SILAC ratio at all detected probe-modified sites of other DGK subtypes” value ([13]; 1 mM)?
A: ~1

Q: What about the “kinase targets with potent activity (SR≥5)” value ([13]; all detectable kinases) of the same compound?
A: a single kinase target

Q: What about the “number of kinase targets that show SR≥2” value [13] of the same compound?
A: 3

Q: And the “SILAC ratio, M3K2/M3K3 probe-modified peptide” value [14]?
A: 1.0

Q: What does the source list for `Cc1nc2sccn2c(=O)c1CCN1CCC(=C(c2ccc(F)cc2)c2ccc(F)cc2)CC1` [Ritanserin]?
A: SILAC ratio, FER probe-modified peptide [1]: 7.9; SILAC ratio, E2AK2 probe-modified peptide [2]: 2.8; SILAC ratio, KCC2D probe-modified peptide [3]: 2.3; activity at 100 µM [4]: 86%; SILAC ratio, AAPK1/AAPK2 probe-modified peptide [5]: 2.4; SILAC ratio, KS6A1/KS6A2/KS6A3 probe-modified peptide [6]: 2.0; SILAC ratio, KS6A4/KS6A5 probe-modified peptide [7]: 2.2; SILAC ratio, MP2K1/MP2K2 probe-modified peptide [8]: 1.9; SILAC ratio, STK3/STK4 probe-modified peptide [9]: 1.6; SILAC ratio, MARK3/MARK4 probe-modified peptide [10]: 2.0; SILAC ratio, M4K4/MINK1/TNIK probe-modified peptide [11]: 1.8; activity at 100 µM [12]: 55%; SILAC ratio at all binding sites detected, other DGK isoforms ([13]; 100 μM): < 2; number of kinase targets that show SR≥2 [13]: 25; SILAC ratio, M3K2/M3K3 probe-modified peptide [14]: 1.2
